Assay results published in patent US7691842B2, “Tricyclic 6-alkylidene-penems as β-lactamase inhibitors” (Wyeth LLC, priority 2002, dated 2010).
Like-named read-outs stand apart in the source and are kept apart here.

How the values were obtained:
[1] = molecular target: class A β-lactamase TEM-1 (Escherichia coli, UniProt P62593); assay: β-Lactamase inhibition, IC50 determination (nitrocefin, spectrophotometric); assay type: biochemical, E. Coli
Outline: (§1)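 Purified enzymes TEM-1 (4.3 nM), Imi-1 (7.1 nM), CcrA (1.2 nM) and AmpC (2.1 nM) were preincubated with inhibitor 10 min at 25 °C in 50 mM PO4, pH 7.0. Nitrocefin (50 μg/ml) hydrolysis rates at 495 nm over 5 min gave % inhibition versus control; IC50 determined graphically.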

[2] = molecular target: class A β-lactamase Imi-1 (Enterobacter cloacae, UniProt Q46991); assay: as above; assay type: biochemical
Chain of class A β-lactamase Imi-1 (Q46991 entry or part of it): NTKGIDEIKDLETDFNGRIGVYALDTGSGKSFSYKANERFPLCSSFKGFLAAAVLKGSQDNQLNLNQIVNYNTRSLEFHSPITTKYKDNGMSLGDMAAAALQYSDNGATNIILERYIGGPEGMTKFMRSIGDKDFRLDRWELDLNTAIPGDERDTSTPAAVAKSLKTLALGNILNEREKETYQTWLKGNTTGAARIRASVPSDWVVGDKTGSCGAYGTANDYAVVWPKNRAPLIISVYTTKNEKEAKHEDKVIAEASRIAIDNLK

[3] = molecular target: class B enzyme CcrA (Bacteroides fragilis, UniProt P25910); assay: as above; assay type: biochemical; conditions: enzyme 1.2 nM; 10 min preincubation at 25° C.; nitrocefin 50 μg/ml; 50 mM PO4, pH 7.0; read-out: IC50 (nM) Class B Ccr
Chain of class B enzyme CcrA (P25910 19-249): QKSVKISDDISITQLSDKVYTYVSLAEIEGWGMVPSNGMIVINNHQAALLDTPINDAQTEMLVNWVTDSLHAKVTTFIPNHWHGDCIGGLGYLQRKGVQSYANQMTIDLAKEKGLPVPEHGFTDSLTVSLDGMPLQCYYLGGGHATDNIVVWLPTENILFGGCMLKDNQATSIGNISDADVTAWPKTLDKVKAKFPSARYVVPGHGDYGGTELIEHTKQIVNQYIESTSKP
Outline: as §1

[4] = molecular target: class C enzyme AmpC (Enterobacter cloacae, UniProt P05364); assay: biochemical; parameters: species or system Enterobacter cloaca
Chain of class C enzyme AmpC (P05364 21-381): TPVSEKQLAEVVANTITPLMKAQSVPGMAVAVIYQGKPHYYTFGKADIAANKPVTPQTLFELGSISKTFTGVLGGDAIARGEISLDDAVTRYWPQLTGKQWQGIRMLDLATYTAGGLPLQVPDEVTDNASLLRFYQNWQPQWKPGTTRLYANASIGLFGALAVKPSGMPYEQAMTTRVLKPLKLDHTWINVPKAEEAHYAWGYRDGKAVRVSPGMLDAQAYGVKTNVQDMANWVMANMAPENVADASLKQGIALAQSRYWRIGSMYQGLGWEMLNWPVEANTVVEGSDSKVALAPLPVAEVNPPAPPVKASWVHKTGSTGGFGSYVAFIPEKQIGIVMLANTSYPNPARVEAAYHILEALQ
Outline: as §1

[5] = test system: class C producing organisms; conditions: background statement; cited from earlier work
[6] = test system: class-A producing pathogens; conditions: background statement; cited from earlier work
[7] = test system: E. Coli GC2844; assay: Antimicrobial susceptibility testing, microbroth dilution MIC of piperacillin + inhibitor; assay type: cell-based; conditions: piperacillin combined with constant 4 μg/ml inhibitor; Inc: 35° C. for 18 hours
Outline: (§2)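 Piperacillin two-fold dilution series + 4 μg/ml inhibitor (final), MHBII, 10^5 CFU/ml, 35° C, 18-22 h, ambient air; NCCLS microdilution.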

[8] = test system: E. Coli GC2894 (Ampc); assay: as above; assay type: cell-based; conditions: piperacillin combined with constant 4 μg/ml inhibitor; Inc: 35° C. for 18 hours
Outline: as §2

[9] = test system: E. Coli GC2920 (IRT-2); assay: as above; assay type: cell-based; conditions: piperacillin combined with constant 4 μg/ml inhibitor; Inc: 35° C. for 18 hours
Outline: as §2

[10] = test system: E. Cloacae GC1477 (Ampc); assay: as above; assay type: cell-based; conditions: piperacillin combined with constant 4 μg/ml inhibitor; Inc: 35° C. for 18 hours
Outline: as §2

[11] = test system: E. Coli GC2847 (TEM-1); assay: as above; assay type: cell-based; conditions: piperacillin combined with constant 4 μg/ml inhibitor; Inc: 35° C. for 18 hours
Outline: as §2

[12] = test system: E. Coli GC2203; assay: as above; assay type: cell-based; conditions: piperacillin combined with constant 4 μg/ml inhibitor; Inc: 35° C. for 18 hours
Outline: as §2

[13] = test system: S. Marcescens GC1781 Sme-1 + Ampc; assay: as above; assay type: cell-based; conditions: piperacillin combined with constant 4 μg/ml inhibitor; Inc: 35° C. for 18 hours
Outline: as §2

[14] = test system: S. aureus GC2216; assay: as above; assay type: cell-based; conditions: piperacillin combined with constant 4 μg/ml inhibitor; Inc: 35° C. for 18 hours
Outline: as §2

[15] = test system: P. aeruginos GC1764 (Ampc); assay: as above; assay type: cell-based; conditions: piperacillin combined with constant 4 μg/ml inhibitor; Inc: 35° C. for 18 hours
Outline: as §2

[16] = test system: Clinical isolates that have been adapted to cause infection in mice; assay: In vivo antibacterial protection (7 day survival of infected mice, ED50); parameters: species or system mice strain CD-1
Source text: In Vivo Antibacterial Protection
Female mice strain CD-1, approximately 18-22 grams, were received from Charles River Laboratories and quarantined 7 days prior to use. In addition, mice may be rendered neutropenic using cytoxan for particular studies.
Clinical isolates that have been adapted to cause infection in mice, are used in the experiment, including infections with strains of E. coli, K. pneumoniae, M. morganii, E. cloacae, S. marcescens, C. freundii, staphylococci, streptococci, P. aeruginosa and N. gonorrhoeae.
Mice are challenged by injecting 0.5 ml intraperitoneally or 0.05 ml intranasally of a predetermined bacterial inoculum suspended in broth, saline or hog gastric mucin (supplemented with dried bovine hemoglobin for N. gonorrhoeae). […] Antibacterial doses (dose concentration prepared by two fold serial dilutions of the antibiotic) are dissolved or suspended in 0.2% aqueous agar or methocel, phosphate buffered saline or an adjuvant are administered orally, subcutaneously or intravenously in the following manner: • a) Orally or subcutaneously: Dose volume of 0.5 ml administered ½ hr after infection. A second dose may be administered 3 hr. after infection for treatment of infections with more virulent organisms. • b) Intravenously: Dose volume of 0.2 ml, administered ½ hr. after infection. For the treatment of infections with more virulent organisms, more doses, up to 48 hr may be administered. (Intravenous dosing will not exceed 3 doses/24 hr period.) • c) Oral pretreatment: Under special circumstances, the pH of the stomach needs to be adjusted in order to increase the gastric stability of the antibiotic. For this purpose, 0.5 ml of phosphate buffered saline (pH7.8, 0.06M) (or specific approved adjuvant) is administered orally ½ hr after infection, followed 5 minutes later by 0.5 ml of antibiotic (also orally) contained in phosphate buffered saline (pH7.8, 0.06M). Animal Species
A detailed explanation as to the number of animals needed for the determination of in vivo efficacy follows: • A) Novel antibiotics are tested at 5 different dose levels with 5 mice per dose level at each of three routes of administration (oral, subcutaneous and intravenous). […] This would require 25 mice/route with 3 routes/antibiotic or 75 mice per novel compound tested. One to two novel antibiotics will be tested per experiment (75-150 mice) • B) The effectiveness of the new compound must be compared to that of a standard, or antibiotic of known effectiveness. Known or previously tested antibiotics are tested at 5 dose levels with 5 mice per dose level by a single route of administration, for a total of 25 mice/antibiotic. Usually 3-6 antibiotics will be tested per experiment. (75-150 mice). • C) Untreated controls—In each of the above tests, untreated animals are infected with 3 different concentrations of bacterial inoculum with 10 mice per concentration (30 mice total in each and every test). These untreated controls are used to determine and maintain the infection level between 10-100 LD50s as required for test to test comparison and validity. Determination of Protective Effects of Antibacterial Agents:
The protective effects of the antibacterial agent(s) are measured by the survival of the infected untreated as compared to the treated animals. For this determination, animals are observed for 7 days after treatment. A census of survivors is taken twice daily and at that time dead as well as moribund animals are removed. The 7 day survival ratio from three separate tests are pooled for estimation of median effective dose (ED50) by computerized program for probit analysis (Cleeland, R. and E. Squires. 1991. Evaluation of New Antimicrobials in Vitro and in Experimental Animal Infections. In Antibiotics in Laboratory Medicine”, 3rd. ed., edited by Victor Lorian. Willams and Wilkins Baltimore, Md. pp. 752-783). […]

[17] = enzyme 4.3 nM, 10 min preincubation at 25° C., nitrocefin 50 μg/ml, 50 mM PO4, pH 7.0, read-out: IC50 (nM) Class A TEM-1
[18] = enzyme 7.1 nM, 10 min preincubation at 25° C., nitrocefin 50 μg/ml, 50 mM PO4, pH 7.0, read-out: IC50 (nM) Class A Imi
[19] = enzyme 2.1 nM, 10 min preincubation at 25° C., nitrocefin 50 μg/ml, 50 mM PO4, pH 7.0, read-out: IC50 (nM) Class C AmpC

Chain of class A β-lactamase TEM-1 (P62593 24-286 limits assumed): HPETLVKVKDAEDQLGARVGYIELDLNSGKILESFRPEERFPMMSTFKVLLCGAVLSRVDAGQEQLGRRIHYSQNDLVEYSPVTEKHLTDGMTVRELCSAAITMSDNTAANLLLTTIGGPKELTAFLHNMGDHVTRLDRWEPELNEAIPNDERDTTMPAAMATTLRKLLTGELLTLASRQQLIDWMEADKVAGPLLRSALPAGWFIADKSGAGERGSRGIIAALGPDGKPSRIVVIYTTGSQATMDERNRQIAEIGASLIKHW

Compound: Cc1nc2nc(/C=C3/C(=O)N4C(C(=O)[O-])=CS[C@H]34)nn2c2c1CCCC2.[Na+] [Example 25, (5R,6Z)-6-[(5-methyl-6,7,8,9-tetrahydro[1,2,4]triazolo[1,5-a]quinazolin-2-yl)methylene]-7-oxo-4-thia-1-azabicyclo[3.2.0]hept-2-ene-2-carboxylic acid, sodium salt]
- melting point: 250 °C (dec.)

Compound: O=C([O-])C1=CS[C@@H]2/C(=C\c3ccc4nc5n(c4c3)CCS5)C(=O)N12.[Na+] [Example 28, (5R,6Z)-6-(2,3-dihydro[1,3]thiazolo[3,2-a]benzimidazol-6-ylmethylene)-7-oxo-4-thia-1-azabicyclo[3.2.0]hept-2-ene-2-carboxylic acid, sodium salt]
- IC50 [1]: 3.2 nM
- IC50 [2]: 90 nM
- IC50 [3]: 110 nM
- IC50 [4]: 5.7 nM
- melting point: > 250 °C

Compound: O=C([O-])C1=CS[C@@H]2/C(=C\c3ccc4nc5n(c4c3)CCCS5)C(=O)N12.[Na+] [Example 29, (5R,6Z)-6-(3,4-dihydro-2H-[1,3]thiazino[3,2-a]benzimidazol-7-ylmethylene)-7-oxo-4-thia-1-azabicyclo[3.2.0]hept-2-ene-2-carboxylic acid, sodium salt]
- IC50 [1]: 15 nM
- IC50 [2]: 300 nM
- IC50 [3]: 240 nM
- IC50 [4]: 18 nM
- melting point: > 250 °C

Compound: O=C([O-])C1=CS[C@@H]2/C(=C\c3ccc4nc5sccn5c4c3)C(=O)N12.[Na+] [Example 30, (5R,6Z)-7-oxo-6-([1,3]thiazolo[3,2-a]benzimidazol-6-ylmethylene)-4-thia-1-azabicyclo[3.2.0]hept-2-ene-2-carboxylic acid, sodium salt]
- IC50 [1]: 46 nM
- IC50 [2]: 200 nM
- IC50 [3]: 97 nM
- IC50 [4]: 9.3 nM
- melting point: > 250 °C

Compound: O=C([O-])C1=CS[C@@H]2/C(=C\c3nc4ncc5c(n4n3)CCC3(C5)OCCO3)C(=O)N12.[Na+] [Example 24, (5R,6Z)-6-(8′,9′-dihydro-6′H-spiro[1,3-dioxolane-2,7′-[1,2,4]triazolo[1,5-a]quinazolin]-2′-ylmethylene)-7-oxo-4-thia-1-azabicyclo[3.2.0]hept-2-ene-2-carboxylic acid, sodium salt]
- melting point: > 250 °C (dec.)

Compound: Cc1nc2nc(/C=C3/C(=O)N4C(C(=O)[O-])=CS[C@H]34)nn2c2c1CCC2.[Na+] [Example 22, (5R,6Z)-6-[(5-methyl-7,8-dihydro-6H-cyclopenta[e][1,2,4]triazolo[1,5-a]pyrimidin-2-yl)methylene]-7-oxo-4-thia-1-azabicyclo[3.2.0]hept-2-ene-2-carboxylic acid, sodium salt]
- melting point: 250 °C (dec.)

Compound: O=C([O-])C1=CS[C@@H]2/C(=C\c3cn4c5c(c(OCCOCc6ccccc6)nc4n3)CCC5)C(=O)N12.[Na+] [Example 27, (5R,6Z)-6-(5-[2-(benzyloxy)ethoxy]-7,8-dihydro-6H-cyclopenta[e]imidazo[1,2-a]pyrimidin-2-ylmethylene)-7-oxo-4-thia-1-azabicyclo[3.2.0]hept-2-ene-2-carboxylic acid, sodium salt]
- IC50 [1]: 12 nM
- IC50 [2]: 33 nM
- IC50 [3]: 180 nM
- IC50 [4]: 3 nM
- melting point: > 250 °C

Compound: C[C@]1(Cn2ccnn2)[C@H](C(=O)O)N2C(=O)C[C@H]2S1(=O)=O [tazobactam]
- effectiveness against class C producing organisms [5]: ineffective
- effectiveness against class-A producing pathogens [6]: effective

Compound: O=C(O)C1=CS[C@@H]2/C(=C\c3cn4c5c(sc4n3)COCC5)C(=O)N12 [Example 15, (5R),(6Z)-6-(5,8-dihydro-6H-imidazo[2,1-b]pyrano[4,3-d][1,3]thiazol-2-ylmethylene)-7-oxo-4-thia-1-azabicyclo[3.2.0]hept-2-ene-2-carboxylic acid]
- IC50 [1, 17]: 2.8 nM
- IC50 [2, 18]: 100 nM
- IC50 [3]: 200 nM
- IC50 [4, 19]: 1.5 nM
- Minimal Inhibitory Concentration E. Coli GC2844 [7]: 2 µg/mL
- Minimal Inhibitory Concentration E. Coli GC2894 (Ampc) [8]: 2 µg/mL
- Minimal Inhibitory Concentration E. Coli GC2920 (IRT-2) [9]: 2 µg/mL
- Minimal Inhibitory Concentration E. Cloacae GC1477 (Ampc) [10]: 16 µg/mL
- Minimal Inhibitory Concentration E. Coli GC2847 (TEM-1) [11]: 4 µg/mL
- Minimal Inhibitory Concentration E. Coli GC2203 [12]: 2 µg/mL
- Minimal Inhibitory Concentration S. Marcescens GC1781 Sme-1 + Ampc [13]: 1 µg/mL
- Minimal Inhibitory Concentration S. aureus GC2216 [14]: 0.05 µg/mL
- Minimal Inhibitory Concentration P. aeruginos GC1764 (Ampc) [15]: 4 µg/mL
- ED50 ([16]; Ratio of Piperacillin Inhibitor not given): 25 mg/kg

Compound: Cc1ccc2c(c1)sc1nc(/C=C3/C(=O)N4C(C(=O)O)=CS[C@H]34)cn12 [Example 7]
- IC50 [1, 17]: 2.6 nM
- IC50 [2, 18]: 106 nM
- IC50 [3]: 103 nM
- IC50 [4, 19]: 1.1 nM
- Minimal Inhibitory Concentration E. Coli GC2844 [7]: 2 µg/mL
- Minimal Inhibitory Concentration E. Coli GC2894 (Ampc) [8]: 4 µg/mL
- Minimal Inhibitory Concentration E. Coli GC2920 (IRT-2) [9]: 2 µg/mL
- Minimal Inhibitory Concentration E. Cloacae GC1477 (Ampc) [10]: 32 µg/mL
- Minimal Inhibitory Concentration E. Coli GC2847 (TEM-1) [11]: 4 µg/mL
- Minimal Inhibitory Concentration E. Coli GC2203 [12]: 1 µg/mL
- Minimal Inhibitory Concentration S. Marcescens GC1781 Sme-1 + Ampc [13]: 0.5 µg/mL
- Minimal Inhibitory Concentration S. aureus GC2216 [14]: <0.06 µg/mL
- Minimal Inhibitory Concentration P. aeruginos GC1764 (Ampc) [15]: 16 µg/mL
- ED50 ([16]; Ratio of Piperacillin Inhibitor 4:1): 137 mg/kg
